Data taken from patent US9957271B2, “Substituted bicyclic aza-heterocycles and analogues as sirtuin modulators” (GlaxoSmithKline, LLC, priority 2012, dated 2018).

Legend:
SIRT1 [1] = target: T1, SIRT1 (Homo sapiens, UniProt Q96EB6); test: Trp mass spectrometry assay of SIRT1 activity; assay type: biochemical; details: for Emax: read-out: Trp % Fold Act
T1 sequence (Q96EB6 1-747): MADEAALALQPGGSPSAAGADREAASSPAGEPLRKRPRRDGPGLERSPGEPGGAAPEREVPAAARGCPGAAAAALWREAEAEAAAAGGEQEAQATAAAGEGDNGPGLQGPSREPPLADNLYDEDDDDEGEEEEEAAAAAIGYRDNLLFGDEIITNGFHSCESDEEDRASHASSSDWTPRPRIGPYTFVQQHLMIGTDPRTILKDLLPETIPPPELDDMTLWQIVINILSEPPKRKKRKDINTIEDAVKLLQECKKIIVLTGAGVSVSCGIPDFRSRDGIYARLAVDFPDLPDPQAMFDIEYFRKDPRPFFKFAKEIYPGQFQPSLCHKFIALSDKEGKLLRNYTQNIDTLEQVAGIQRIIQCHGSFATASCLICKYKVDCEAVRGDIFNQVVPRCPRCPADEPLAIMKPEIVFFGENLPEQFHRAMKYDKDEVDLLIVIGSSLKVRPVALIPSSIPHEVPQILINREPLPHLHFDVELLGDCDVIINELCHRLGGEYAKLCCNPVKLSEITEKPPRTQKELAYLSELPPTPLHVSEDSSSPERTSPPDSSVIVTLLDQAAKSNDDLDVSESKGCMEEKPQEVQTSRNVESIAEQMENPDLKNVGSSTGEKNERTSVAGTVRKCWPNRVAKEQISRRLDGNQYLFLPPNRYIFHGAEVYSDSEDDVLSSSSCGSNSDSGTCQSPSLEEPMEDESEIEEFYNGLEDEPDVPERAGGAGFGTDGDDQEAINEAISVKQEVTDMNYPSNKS
Outline: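 His-tagged SIRT1 expressed in E. coli BL21(DE3), 10 nM, incubated 25 min at 25° C. with 0.5 μM Ac-RHKK(Ac)W-NH2 peptide and 120 μM βNAD+ in 50 mM HEPES pH 7.5, […], 1 mM DTT, 0.05% BSA; formic acid stop. OAADPR or deacetylated peptide measured by mass spectrometry; EC1.5 and percent maximum activation versus DMSO control.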

SIRT1 [2] = target: T1, SIRT1; test: TAMRA based mass spectrometry assay of SIRT1 activity; assay type: biochemical; details: for Emax: read-out: TAMRA % Fold Act
Outline: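 Recombinant N-terminal His-tagged human SIRT1 (10 nM, E. coli) incubated 25 min at 25 °C with 0.5 μM 5TMR-labelled p53-derived acetyl-peptide and 120 μM βNAD+ in Tris-acetate pH 8 buffer with DTT and 0.05% BSA, compound at varying concentrations. Stopped with formic acid; deacetylated peptide or OAADPR measured by mass spectrometry relative to DMSO controls.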

[3] = Trp peptide substrate, concentration giving 150% activation of SIRT1
[4] = Trp peptide substrate, percent maximum fold activation
[5] = TAMRA peptide substrate, concentration giving 150% activation of SIRT1
[6] = TAMRA peptide substrate, percent maximum fold activation
[7] = Trp assay, concentration giving 150% activation of SIRT1
[8] = Trp assay, percent maximum fold activation
[9] = TAMRA assay, concentration giving 150% activation of SIRT1
[10] = TAMRA assay, percent maximum fold activation
[11] = concentration of test compound giving 150% activation of SIRT1, Trp peptide substrate
[12] = percent maximum fold activation of SIRT1, Trp peptide substrate
[13] = concentration of test compound giving 150% activation of SIRT1, TAMRA peptide substrate
[14] = percent maximum fold activation of SIRT1, TAMRA peptide substrate

## O=C(Nc1ccncn1)c1cnn2ccc(-c3ccccc3OC(F)(F)F)nc12 [Compound 533, N-(pyrimidin-4-yl)-5-(2-(trifluoromethoxy)phenyl)pyrazolo[1,5-a]pyrimidine-3-carboxamide]
SIRT1 [1]; [3]
  Trp EC1.5: B (EC1.5 1-25 μM)
SIRT1 [1]; [4]
  Emax: < 350%
SIRT1 [2]; [5]
  TAMRA EC1.5: A (EC1.5<1 μM)
SIRT1 [2]; [6]
  Emax: ≥ 350%

## O=C(Nc1cnc2ccc(-c3ccccc3C(F)(F)F)nn12)c1cncc(OC[C@@H](O)CO)n1 [Compound 645]
SIRT1 [1]; [7]
  Trp EC1.5 (μM): A (EC1.5<1 μM)
SIRT1 [1]; [8]
  Emax: ≥ 350%
SIRT1 [2]; [9]
  TAMRA EC1.5 (μM): A (EC1.5<1 μM)
SIRT1 [2]; [10]
  Emax: ≥ 350%

## Cc1nc2ccc(-c3ccccc3OC(F)(F)F)nn2c1C(=O)Nc1ccncn1 [Compound 469]
SIRT1 [1]; [3]
  Trp EC1.5: B (EC1.5 1-25 μM)
SIRT1 [1]; [4]
  Emax: ≥ 350%
SIRT1 [2]; [5]
  TAMRA EC1.5: A (EC1.5<1 μM)
SIRT1 [2]; [6]
  Emax: ≥ 350%

## O=C(Nc1ccccn1)c1cnc2ccc(-c3ccccc3OC(F)(F)F)nn12 [Compound 14]
SIRT1 [1]; [11]
  Trp EC1.5 (μM): B (EC1.5 1-25 μM)
SIRT1 [1]; [12]
  Emax: ≥ 350%
SIRT1 [2]; [13]
  TAMRA EC1.5 (μM): A (EC1.5<1 μM)
SIRT1 [2]; [14]
  Emax: ≥ 350%

## Cc1cc(NC(=O)c2c(C)nc3c(C)cc(-c4ccccc4OC(F)(F)F)nn23)ccn1 [Compound 481]
SIRT1 [1]; [3]
  Trp EC1.5: A (EC1.5<1 μM)
SIRT1 [1]; [4]
  Emax: ≥ 350%
SIRT1 [2]; [5]
  TAMRA EC1.5: A (EC1.5<1 μM)
SIRT1 [2]; [6]
  Emax: ≥ 350%

## Cc1cc(-c2ccccc2C(F)(F)F)nn2c(C(=O)Nc3ccncc3F)cnc12 [Compound 541]
SIRT1 [1]; [3]
  Trp EC1.5: B (EC1.5 1-25 μM)
SIRT1 [1]; [4]
  Emax: ≥ 350%
SIRT1 [2]; [5]
  TAMRA EC1.5: A (EC1.5<1 μM)
SIRT1 [2]; [6]
  Emax: ≥ 350%

## Cn1cc(-c2ccc3ncc(C(=O)Nc4cccc(N5CCOCC5)n4)n3n2)cn1 [Compound 56]
SIRT1 [1]; [11]
  Trp EC1.5 (μM): B (EC1.5 1-25 μM)
SIRT1 [1]; [12]
  Emax: < 350%
SIRT1 [2]; [13]
  TAMRA EC1.5 (μM): B (EC1.5 1-25 μM)
SIRT1 [2]; [14]
  Emax: < 350%

## O=C(Nc1cccc(CN2CCOCC2)n1)c1cnn2ccc(-c3ccccc3OC(F)(F)F)nc12 [Compound 535]
SIRT1 [1]; [3]
  Trp EC1.5: A (EC1.5<1 μM)
SIRT1 [1]; [4]
  Emax: ≥ 350%
SIRT1 [2]; [5]
  TAMRA EC1.5: A (EC1.5<1 μM)
SIRT1 [2]; [6]
  Emax: ≥ 350%

## Cc1nc2ccc(-c3ccccc3C(F)(F)F)nn2c1C(=O)Nc1cccc(N2CCOCC2)n1 [Compound 71]
SIRT1 [1]; [11]
  Trp EC1.5 (μM): A (EC1.5<1 μM)
SIRT1 [1]; [12]
  Emax: ≥ 350%
SIRT1 [2]; [13]
  TAMRA EC1.5 (μM): A (EC1.5<1 μM)
SIRT1 [2]; [14]
  Emax: ≥ 350%

## Cc1cccc(NC(=O)c2c(C)nc3ccc(-c4cccc(OC[C@H](O)CO)c4)nn23)n1 [Compound 790]
SIRT1 [1]; [7]
  Trp EC1.5 (μM): A (EC1.5<1 μM)
SIRT1 [1]; [8]
  Emax: ≥ 350%
SIRT1 [2]; [9]
  TAMRA EC1.5 (μM): A (EC1.5<1 μM)
SIRT1 [2]; [10]
  Emax: ≥ 350%

## O=C(Nc1cnc2ccc(-c3ccccc3Cl)nn12)c1ccccn1 [Compound 287]
SIRT1 [1]; [7]
  Trp EC1.5 (μM): C (EC1.5>25 μM)
SIRT1 [1]; [8]
  Emax: < 350%
SIRT1 [2]; [9]
  TAMRA EC1.5 (μM): A (EC1.5<1 μM)
SIRT1 [2]; [10]
  Emax: ≥ 350%

## O=C(Nc1ccncc1)c1cnc2ccc(-c3ccccc3C(F)(F)F)nn12 [Compound 77]
SIRT1 [1]; [11]
  Trp EC1.5 (μM): B (EC1.5 1-25 μM)
SIRT1 [1]; [12]
  Emax: < 350%
SIRT1 [2]; [13]
  TAMRA EC1.5 (μM): B (EC1.5 1-25 μM)
SIRT1 [2]; [14]
  Emax: ≥ 350%

## Cc1nc2ccc(-c3ccccc3Cl)nn2c1NC(=O)c1ccncn1 [Compound 348]
SIRT1 [1]; [7]
  Trp EC1.5 (μM): C (EC1.5>25 μM)
SIRT1 [1]; [8]
  Emax: < 350%
SIRT1 [2]; [9]
  TAMRA EC1.5 (μM): C (EC1.5>25 μM)
SIRT1 [2]; [10]
  Emax: < 350%

## O=C(Nc1cnc2ccc(-c3ccccc3C(F)(F)F)nn12)c1nccs1 [Compound 122]
SIRT1 [1]; [11]
  Trp EC1.5 (μM): B (EC1.5 1-25 μM)
SIRT1 [1]; [12]
  Emax: < 350%
SIRT1 [2]; [13]
  TAMRA EC1.5 (μM): A (EC1.5<1 μM)
SIRT1 [2]; [14]
  Emax: ≥ 350%

## O=C(Nc1nc(CN2CCOCC2)cs1)c1cnc2ccc(-c3ccccc3C(F)(F)F)nn12 [Compound 20]
SIRT1 [1]; [11]
  Trp EC1.5 (μM): B (EC1.5 1-25 μM)
SIRT1 [1]; [12]
  Emax: < 350%
SIRT1 [2]; [13]
  TAMRA EC1.5 (μM): A (EC1.5<1 μM)
SIRT1 [2]; [14]
  Emax: ≥ 350%

## COc1cccc(NC(=O)c2cnn3ccc(-c4ccccc4C(F)(F)F)nc23)n1 [Compound 486]
SIRT1 [1]; [3]
  Trp EC1.5: A (EC1.5<1 μM)
SIRT1 [1]; [4]
  Emax: ≥ 350%
SIRT1 [2]; [5]
  TAMRA EC1.5: A (EC1.5<1 μM)
SIRT1 [2]; [6]
  Emax: ≥ 350%

## Cc1nn2ccc(-c3ccccc3C(F)(F)F)nc2c1C(=O)Nc1ccnc(O)c1 [Compound 784]
SIRT1 [1]; [7]
  Trp EC1.5 (μM): A (EC1.5<1 μM)
SIRT1 [1]; [8]
  Emax: ≥ 350%
SIRT1 [2]; [9]
  TAMRA EC1.5 (μM): A (EC1.5<1 μM)
SIRT1 [2]; [10]
  Emax: ≥ 350%
